In patent US9844536B2, “3-(1H-imidazo[4,5-C]pyridin-2-yl)-1H-pyrazolo[3,4-C]pyridine and therapeutic uses thereof” (Samumed, LLC, priority 2014, dated 2017) one finds IC50 and EC50 data, which are given here for 17 molecules.

Assay [1] deals with Wnt pathway (Sp5-Luc reporter, SW480 cells). Put plainly: Sp5-Luc reporter gene screening assay for Wnt activity in SW480 colon carcinoma cells. The following applies: Homo sapiens. Format: cell-based. The text has this: The screening assay for Wnt activity is described as follows. Reporter cell lines can be generated by stably transducing cancer cell lines (e.g., colon cancer) or primary cells (e.g., IEC-6 intestinal cells) with a lentiviral construct that includes a Wnt-responsive promoter driving expression of the firefly luciferase gene.
SW480 colon carcinoma cells were transduced with a lentiviral vector expressing luciferase with a human Sp5 promoter consisting of a sequence of eight TCF/LEF binding sites. SW480 cells stably expressing the Sp5-Luc reporter gene and a hygromycin resistance gene were selected by treatment with 150 μg/ml of hygromycin for 7 days. These stably transduced SW480 cells were expanded in cell culture and used for all further screening activities. For Sp5-Luc reporter gene assays, the cells were plated at 10,000 cells/well in 96-well plates with growth medium containing 10% fetal calf serum and incubated overnight at 37° C. and 5% CO2. Each compound was dissolved in DMSO as a 10 mM stock in standard j-vials and used to prepare compound source plates in dose-response format with 3-fold serial dilutions and a 10 mM top concentration. Compound transfer from serially diluted source plates to assay plates containing the cells was accomplished using a pintool (Multimek 96, Beckman equipped with V&P Scientific FP1S50H pins) based liquid handling protocol. This protocol used a slotted pin to transfer 50 nl of compound from a source plate well to an assay plate well containing 50 μl of cells in growth medium. […] Control wells received 50 nl of DMSO treatment for normalization and calculating IC50 values. The treated cells were incubated at 37° C. and 5% CO2 for an additional forty-two hours. Following incubation, the growth medium was removed and 50 μl of BrightGlo luminescence reagent (Promega) was added to each well of the 96-well assay plates. The plates were placed on an orbital shaker for 5 min and then luminescence was quantified on the Victor3 (Perkin Elmer) plate reader. Readings were normalized to DMSO only treated cells, and normalized activities were utilized for IC50 calculations using the dose-response log (inhibitor) vs. response-variable slope (four parameters) nonlinear regression feature available in GraphPad Prism 5.0 or 6.0.
For orientation: In a reporter assay the amount or activity of a reporter protein is the signal.

The next assay has as its system LL29 cells. Briefly: Inhibition of the fibrotic process (αSMA staining) in TGF-β1 treated primary human fibroblasts from IPF patients. Format: cell-based. The following applies: Fibroblast, 96 h, TGF-β1 20 ng/mL, 4 days, dose-response 10 μM to 1.87 nM, read-out: Inhibition of fibrosis EC50. An excerpt: The above synthesized compounds were screened using primary human fibroblasts (derived from IPF patients) treated with TGF-β1 to determine their ability to inhibit the fibrotic process.
Primary human fibroblasts derived from IPF patients (LL29 cells) [^1Xiaoqiu Liu, et. al., “Fibrotic Lung Fibroblasts Show Blunted Inhibition by cAMP Due to Deficient cAMP Response Element-Binding Protein Phosphorylation”, Journal of Pharmacology and Experimental Therapeutics (2005), 315(2), 678-687; ^2Watts, K. L., et. al., “RhoA signaling modulates cyclin D1 expression in human lung fibroblasts; implications for idiopathic pulmonary fibrosis”, Respiratory Research (2006), 7(1), 88] were obtained from American Type Culture Collection (ATCC) and expanded in F12 medium supplemented with 15% Fetal Bovine Serum and Penicillin/Streptomycin.
Each compound was dissolved in DMSO as a 10 mM stock and used to prepare compound source plates. Serial dilution (1:2, 11-point dose-response curves from 10 μM to 1.87 nM) and compound transfer was performed using the ECHO 550 (Labcyte, Sunnyvale, Calif.) into 384-well clear bottom assay plates (Greiner Bio-One) with appropriate DMSO backfill for a final DMSO concentration of 0.1%. LL29 cells were plated at 1,500 cells/well in 80 μl/well F12 medium supplemented with 1% Fetal Bovine Serum. One hour after addition of the cells, TGF-β1 (Peprotech; 20 ng/mL) was added to the plates to induce fibrosis (ref. 1 and 2 above). Wells treated with TGF-β1 and containing DMSO were used as controls. Cells were incubated at 37° C. and 5% CO2 for 4 days. Following incubation for 4 days, SYTOX green nucleic acid stain (Life Technologies [Thermo Fisher Scientific]) was added to the wells at a final concentration of 1 uM and incubated at room temperature for 30 min. Cells were then fixed using 4% formaldehyde (Electron Microscopy Sciences), washed 3 times with PBS followed by blocking and permeabilization using 3% Bovine Serum Albumin (BSA; Sigma) and 0.3% Triton X-100 (Sigma) in PBS. Cells were then stained with antibody specific to α-smooth muscle actin (αSMA; Abcam) (ref. 1 and 2 above) in 3% Bovine Serum Albumin (BSA; Sigma) and 0.3% Triton X-100 (Sigma) in PBS, and incubated overnight at 4° C. Cells were then washed 3 times with PBS, followed by incubation with Alexa Flor-647 conjugated secondary antibody (Life Technologies [Thermo Fisher Scientific]) and DAPI at room temperature for 1 hour. Cells were then washed 3 times with PBS and plates were sealed for imaging. αSMA staining was imaged by excitation at 630 nm and emission at 665 nm and quantified using the Compartmental Analysis program on the CellInsight CX5 (Thermo Scientific). Dead or apoptotic cells were excluded from analysis based on positive SYTOX green staining. % of total cells positive for αSMA were counted in each well and normalized to the average of 11 wells treated with TGF-31 on the same plate using Dotmatics' Studies Software. The normalized averages (fold change over untreated) of 3 replicate wells for each compound concentration were used to create dose-responses curves and EC50 values were calculated using non-linear regression curve fit in the Dotmatics' Studies Software. The EC50 values are reported.

By IC50 is commonly meant the midpoint of a concentration-inhibition curve. A low value points to higher potency. One may read the EC50 as the concentration giving half of the maximal effect. The molecule `Fc1ccc(-c2nccc3[nH]c(-c4n[nH]c5cnc(-c6cncc(CN7CCCC7)c6)cc45)nc23)s1` [Compound 352, 3-(4-(5-Fluorothiophen-2-yl)-1H-imidazo[4,5-c]pyridin-2-yl)-5-(5-(pyrrolidin-1-ylmethyl)pyridin-3-yl)-1H-pyrazolo[3,4-c]pyridine] returned an IC50 in assay [1] of 100 nM. In addition, the EC50 with LL29 cells is at least 9990 nM.
Molecule `CC(C)(C)C(=O)Nc1cncc(-c2cc3c(-c4nc5c(-c6ccc(F)cc6)nccc5[nH]4)n[nH]c3cn2)c1` [Compound 34, N-(5-(3-(4-(4-Fluorophenyl)-1H-imidazo[4,5-c]pyridin-2-yl)-1H-pyrazolo[3,4-c]pyridin-5-yl)pyridin-3-yl)pivalamide] registered an IC50 in assay [1] of 50.9 nM. Moreover, in the assay with LL29 cells, the EC50 is 515 nM.
In the same order, the values of `c1ccc(CNCc2cncc(-c3cc4c(-c5nc6c(-c7ccsc7)nccc6[nH]5)n[nH]c4cn3)c2)cc1` [Compound 283, N-Benzyl-1-(5-(3-(4-(thiophen-3-yl)-1H-imidazo[4,5-c]pyridin-2-yl)-1H-pyrazolo[3,4-c]pyridin-5-yl)pyridin-3-yl)methanamine] are 116 nM and at most 9 nM.
For `c1ccc(-c2nccc3[nH]c(-c4n[nH]c5cnc(-c6cncc(CNCC7CCCC7)c6)cc45)nc23)nc1` [Compound 154, 1-Cyclopentyl-N-((5-(3-(4-(pyridin-2-yl)-1H-imidazo[4,5-c]pyridin-2-yl)-1H-pyrazolo[3,4-c]pyridin-5-yl)pyridin-3-yl)methyl)methanamine], in that order: 219 nM and 140 nM.
`CN(C)Cc1cncc(-c2cc3c(-c4nc5c(-c6cccc(F)c6)nccc5[nH]4)n[nH]c3cn2)c1` [Compound 13, 1-(5-(3-(4-(3-Fluorophenyl)-1H-imidazo[4,5-c]pyridin-2-yl)-1H-pyrazolo[3,4-c]pyridin-5-yl)pyridin-3-yl)-N,N-dimethylmethanamine]: the IC50 in assay [1] worked out at 157 nM. Further, in the assay with LL29 cells, the EC50 turned out to be 1660 nM.
In the same order, the values of `CC(C)CC(=O)Nc1cncc(-c2cc3c(-c4nc5c(-c6ccccn6)nccc5[nH]4)n[nH]c3cn2)c1` [Compound 132, 3-Methyl-N-(5-(3-(4-(pyridin-2-yl)-1H-imidazo[4,5-c]pyridin-2-yl)-1H-pyrazolo[3,4-c]pyridin-5-yl)pyridin-3-yl)butanamide] are 198 nM and 685 nM.
In the same order, the values of `O=C(CC1CCNCC1)Nc1cncc(-c2cc3c(-c4nc5c(-c6cccc(F)c6)nccc5[nH]4)n[nH]c3cn2)c1` [Compound 945, N-(5-(3-(4-(3-Fluorophenyl)-1H-imidazo[4,5-c]pyridin-2-yl)-1H-pyrazolo [3,4-c]pyridin-5-yl)pyridin-3-yl)-2-(piperidin-4-yl)acetamide] are over 10000 nM and 60 nM.
In the same order, the values of `Fc1ccc(-c2nccc3[nH]c(-c4n[nH]c5cnc(-c6cncnc6)cc45)nc23)cc1` [Compound 52, 3-(4-(4-Fluorophenyl)-1H-imidazo[4,5-c]pyridin-2-yl)-5-(pyrimidin-5-yl)-1H-pyrazolo[3,4-c]pyridine] are 74.1 nM and 44 nM.
The molecule `O=C(Nc1cncc(-c2cc3c(-c4nc5c(-c6ccsc6)nccc5[nH]4)n[nH]c3cn2)c1)C1CCC1` [Compound 280, N-(5-(3-(4-(Thiophen-3-yl)-1H-imidazo[4,5-c]pyridin-2-yl)-1H-pyrazolo[3,4-c]pyridin-5-yl)pyridin-3-yl)cyclobutanecarboxamide] gave an IC50 in assay [1] of 42.8 nM. In addition, the EC50 with LL29 cells was at least 9990 nM.
For `CN(C)c1cncc(-c2cc3c(-c4nc5c(-c6cccc(F)c6)nccc5[nH]4)n[nH]c3cn2)c1` [Compound 7, 5-(3-(4-(3-Fluorophenyl)-1H-imidazo[4,5-c]pyridin-2-yl)-1H-pyrazolo[3,4-c]pyridin-5-yl)-N,N-dimethylpyridin-3-amine], in that order: 11.4 nM and at most 9 nM.
Molecule `CCCCC(=O)Nc1cncc(-c2cc3c(-c4nc5c(-c6cc(F)cc(NCCN(C)C)c6)nccc5[nH]4)n[nH]c3cn2)c1` [Compound 460, N-(5-(3-(4-(3-((2-(Dimethylamino)ethyl)amino)-5-fluorophenyl)-1H-imidazo[4,5-c]pyridin-2-yl)-1H-pyrazolo[3,4-c]pyridin-5-yl)pyridin-3-yl)pentanamide] showed an IC50 in assay [1] of 203 nM. In the assay on LL29 cells, the EC50 is at least 9990 nM.
For `Cc1ccc(-c2nccc3[nH]c(-c4n[nH]c5cnc(-c6cncc(NC(=O)C(C)C)c6)cc45)nc23)s1` [Compound 373, N-(5-(3-(4-(5-Methylthiophen-2-yl)-1H-imidazo[4,5-c]pyridin-2-yl)-1H-pyrazolo[3,4-c]pyridin-5-yl)pyridin-3-yl)isobutyramide], in that order: 9.9 nM and at most 9 nM.
With `O=C(Cc1ccccc1)Nc1cncc(-c2cc3c(-c4nc5cnccc5[nH]4)n[nH]c3cn2)c1` [Compound 244, N-(5-(3-(1H-Imidazo[4,5-c]pyridin-2-yl)-1H-pyrazolo[3,4-c]pyridin-5-yl)pyridin-3-yl)-2-phenylacetamide], the IC50 in assay [1] amounted to 1300 nM. Further, the EC50 in the assay with LL29 cells was at least 9990 nM.
On to `CC(C)CC(=O)Nc1cncc(-c2cc3c(-c4nc5c(-c6ccc(F)s6)nccc5[nH]4)n[nH]c3cn2)c1` [Compound 340, N-(5-(3-(4-(5-Fluorothiophen-2-yl)-1H-imidazo[4,5-c]pyridin-2-yl)-1H-pyrazolo[3,4-c]pyridin-5-yl)pyridin-3-yl)-3-methylbutanamide], for which, in assay [1], it took 31.7 nM to reach half-maximal inhibition (IC50). Besides, the EC50 in the assay with LL29 cells stood at 306 nM.
For `O=C(Nc1cncc(-c2cc3c(-c4nc5cnccc5[nH]4)n[nH]c3cn2)c1)C1CCCCC1` [Compound 256, N-(5-(3-(1H-Imidazo[4,5-c]pyridin-2-yl)-1H-pyrazolo[3,4-c]pyridin-5-yl)pyridin-3-yl)cyclohexanecarboxamide], in that order: 532 nM and at least 9990 nM.
In the same order, the values of `CCCC(=O)Nc1cncc(-c2cc3c(-c4nc5c(-c6cc(F)cc(CNS(C)(=O)=O)c6)nccc5[nH]4)n[nH]c3cn2)c1` [Compound 433, N-(5-(3-(4-(3-Fluoro-5-(methylsulfonamidomethyl)phenyl)-1H-imidazo[4,5-c]pyridin-2-yl)-1H-pyrazolo[3,4-c]pyridin-5-yl)pyridin-3-yl)butyramide] are over 10000 nM and 195 nM.
Regarding `CS(=O)(=O)NCc1cc(F)cc(-c2nccc3[nH]c(-c4n[nH]c5cnc(-c6cncc(NC(=O)c7ccccc7)c6)cc45)nc23)c1` [Compound 427, N-(5-(3-(4-(3-Fluoro-5-(methylsulfonamidomethyl)phenyl)-1H-imidazo[4,5-c]pyridin-2-yl)-1H-pyrazolo[3,4-c]pyridin-5-yl)pyridin-3-yl)benzamide], the IC50 in assay [1] was over 10000 nM. Also, in the assay on LL29 cells, the EC50 was at least 9990 nM.
